Data taken from PMC11509018, “Evaluation of the Role of Tanshinone I in an In Vitro System of Charcot-Marie-Tooth Disease Type 2N” (International Journal of Molecular Sciences, 2024).

Target: T1, AlaRS N71Y binding to Nrp1 (Homo sapiens, UniProt P49588, N71Y)
T1 construct: expressed in transfected cells
T1 sequence (P49588 1-968 N71Y): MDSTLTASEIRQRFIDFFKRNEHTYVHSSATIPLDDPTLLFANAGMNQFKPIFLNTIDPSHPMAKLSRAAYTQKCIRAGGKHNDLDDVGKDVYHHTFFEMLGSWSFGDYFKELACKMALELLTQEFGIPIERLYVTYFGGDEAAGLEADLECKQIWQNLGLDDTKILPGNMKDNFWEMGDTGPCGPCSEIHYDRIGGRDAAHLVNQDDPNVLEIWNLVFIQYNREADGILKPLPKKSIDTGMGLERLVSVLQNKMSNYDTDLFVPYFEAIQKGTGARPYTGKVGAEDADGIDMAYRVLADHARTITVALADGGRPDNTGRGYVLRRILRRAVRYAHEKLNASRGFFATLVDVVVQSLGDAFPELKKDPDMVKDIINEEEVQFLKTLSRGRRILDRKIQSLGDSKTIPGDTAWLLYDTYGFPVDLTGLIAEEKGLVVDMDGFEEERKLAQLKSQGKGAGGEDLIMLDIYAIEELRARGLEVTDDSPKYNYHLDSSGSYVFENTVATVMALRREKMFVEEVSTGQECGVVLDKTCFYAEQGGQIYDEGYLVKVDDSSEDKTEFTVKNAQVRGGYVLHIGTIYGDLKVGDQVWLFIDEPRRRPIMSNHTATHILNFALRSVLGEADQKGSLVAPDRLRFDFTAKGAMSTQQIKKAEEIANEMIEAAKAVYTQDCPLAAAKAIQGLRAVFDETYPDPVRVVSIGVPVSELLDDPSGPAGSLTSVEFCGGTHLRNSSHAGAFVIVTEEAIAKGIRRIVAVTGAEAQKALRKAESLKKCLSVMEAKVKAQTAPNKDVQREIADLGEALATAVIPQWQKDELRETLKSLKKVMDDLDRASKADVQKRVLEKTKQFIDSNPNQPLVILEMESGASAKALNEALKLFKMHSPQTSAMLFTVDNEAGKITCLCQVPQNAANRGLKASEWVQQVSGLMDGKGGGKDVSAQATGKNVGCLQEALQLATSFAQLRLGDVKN
Assay: Co-IP of HA-AlaRS mutant with Nrp1 in transfected cells
Type: cell-based
Details: 20 µM Tanshinone I for 24 h, ImageJ, average of three repeats
Protocol: To further investigate whether Tanshinone I-induced conformational changes in AlaRS CMT mutants affect their interaction with Nrp1, Co-IP experiments were performed in cells treated with Tanshinone I. By comparing Co-IP results obtained before and after treatment, we assessed the influence of the drug on the binding strength and mode between the AlaRS CMT mutants and Nrp1. […] To confirm the direct effect of Tanshinone I on the interaction between AlaRS CMT mutants and Nrp1, pull-down experiments were performed. […] Given that the interaction between AlaRS mutants and Nrp1 is associated with disease progression in CMT, the ability of Tanshinone I to disrupt this binding highlights its potential to intervene in the pathogenic mechanisms of these diseases.
Figure 7 The impact of Tanshinone I on the interaction between AlaRS mutants and Nrp1. (A) Co-IP assays were conducted to assess the binding between HA-AlaRS mutants and Nrp1, both with and without treatment with 20 µM Tanshinone I for 24 h. […] (C) Pull down assay was performed to detect the binding between AlaRS mutants and GST-Nrp1 b1 with or without 20 µM Tanshinone I. (D) Relative quantification statistics of the AlaRS mutants pulled down from the GST pull down experiments after Tanshinone I treatment were performed using ImageJ. (E) The cell viability of 293T and NSC34 cells treated with different concentrations of Tanshinone I was assessed using the CCK-8 assay over a 24 h period. TEXT PRINTED IN THE PICTURE: (B) Tanshinone I: Mean density band (N71Y): 0.60; Mean density band (G102R): 0.53; Mean density band (R326W): 0.50; Mean density band (R329H): 0.50; Mean density band (E337K): 0.62 | (D) Tanshinone I: Mean density band (N71Y): 0.82; Mean density band (G102R): 0.76; Mean density band (R326W): 0.84; Mean density band (R329H): 0.84; Mean density band (E337K): 0.90
Total protein was extracted from cells using RIPA buffer (50 mM Tris-HCl pH 7.4, 150 mM NaCl, 1% NP40, 1 mM EDTA) supplemented with a protease and phosphatase inhibitor cocktail (Roche, Basel, Switzerland). After SDS-PAGE, the protein on the gel was transferred to a PVDF membrane (Bio-Rad, Hercules, CA, USA) and then blocked with 5% non-fat dry milk in TBST for 1 h. Then, the membranes were incubated with the indicated primary antibodies and corresponding HRP-conjugated secondary antibodies. Signals were detected using the Bio-Rad ChemiDoc system (Bio-Rad, Shanghai, China). The following antibodies were used: Flag (Ray antibody biotech, Beijing, China, 1:3000), HA (Ray antibody biotech, Beijing, China, 1:3000), and GAPDH (Ray antibody biotech, Beijing, China, 1:5000).
To detect the binding of Nrp1 and AlaRS mutants in cells, whole-cell lysates (500 μg) were treated overnight with 2 μg of anti-Flag antibody in RIPA buffer. Next, Protein A/G agarose beads (#sc-2003, Santa Cruz Biotechnology, Santa Cruz, CA, USA) were applied to the lysates and the samples were further treated for 8–12 h with rotation. Samples were washed three times with RIPA buffer. Subsequently, the immunoprecipitations were resuspended into 2 × SDS-loading buffer. The samples were then boiled for 10 min and detected using Western blot. The experiment was repeated three times.

Cc1coc2c1C(=O)C(=O)c1c-2ccc2c(C)cccc12 [Tanshinone I]
Mean density band (N71Y), relative quantification of AlaRS mutant immunoprecipitated: 0.60
